The source of these data is patent publication EP4759807A1, “PROTEOLYSIS TARGETING CHIMERA COMPOUND FOR DEGRADING IRAK4 AND USE THEREOF” (Shenzhen Zhongge Biological Technology Co., Ltd., priority 2023, dated 2025).

Counter-ions that a name gives are not always drawn. Like-named read-outs stand apart in the source and are kept apart here. Where only a bound is given, the exact number is not on record here.

For the assay, the target named is T1, IRAK4 (Homo sapiens, UniProt Q9NWZ3).
T1 sequence (Q9NWZ3 1-460): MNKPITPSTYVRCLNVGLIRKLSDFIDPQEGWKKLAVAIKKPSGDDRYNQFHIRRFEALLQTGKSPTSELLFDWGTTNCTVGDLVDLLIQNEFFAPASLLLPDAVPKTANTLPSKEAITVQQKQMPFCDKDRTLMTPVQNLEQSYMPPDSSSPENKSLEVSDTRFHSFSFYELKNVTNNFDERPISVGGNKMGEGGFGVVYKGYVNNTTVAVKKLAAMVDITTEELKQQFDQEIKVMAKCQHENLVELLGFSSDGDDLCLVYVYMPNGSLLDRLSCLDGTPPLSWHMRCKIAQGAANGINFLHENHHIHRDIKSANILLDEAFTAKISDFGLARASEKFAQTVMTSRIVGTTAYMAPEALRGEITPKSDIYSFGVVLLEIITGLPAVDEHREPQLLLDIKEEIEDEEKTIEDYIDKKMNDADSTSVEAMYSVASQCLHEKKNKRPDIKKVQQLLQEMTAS
Put plainly: Hibit fluorescence detection of proteolysis (IRAK4-HiBiT in HEK293T cells). Format: cell-based. Also on record: host or cells: HEK293T (ATCC). To be noted: for Dmax: HEK-293T. Summed up: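 Degradation read-out: luminescence from lytic HiBiT detection (15 min, room temperature) after 24 h compound exposure (37 °C, 5% CO2) of HEK293T cells transiently expressing IRAK4 fused to a HiBiT tag. Data fitted to a bell-shaped four-parameter model giving two EC50 values.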
On the technique in general: With HiBiT, luminescence reflects the tagged protein that the partner subunit can reach.

Setting [1] is: IRAK4-HiBiT, HEK293T cells, 24 h.
The mark [2] stands for this setting: IRAK4-HiBiT, HEK293T cells, 24 h, read-out: DC50.

`CN(C[C@H]1CC[C@H](n2cc(-n3cc(-c4cnn5ccc(N6CCOCC6)nc45)nn3)c(C(F)F)n2)CC1)C1CCN(Cc2cccc3c2n(C)c(=O)n3C2CCC(=O)NC2=O)CC1` (stereo partly drawn) [Example 15] yielded a Dmax of less than 60%. The DC50 under setting [1] was 1 to 5 nM.

`Cn1c(=O)n(C2CCC(=O)NC2=O)c2cccc(N3CCC4(CCN(C[C@H]5CC[C@H](n6cc(-n7cc(-c8cnn9ccc(N%10CCOCC%10)nc89)nn7)c(C(F)F)n6)CC5)CC4)C3)c21` (stereo partly drawn) [Example 45]: the Dmax was in the range of 70 to 80%. The compound further returned a DC50 under setting [1] of less than 0.5 nM.

Regarding `Cn1c(=O)n(C2CCC(=O)NC2=O)c2cccc(CN3CCC4(CC3)CN(C[C@H]3CC[C@H](n5cc(-n6cc(-c7cnn8ccc(N9CCOCC9)nc78)nn6)c(C(F)F)n5)CC3)C4)c21` (stereo partly drawn) [Example 14], the Dmax was less than 60%. This compound registered a DC50 under setting [1] of 0.5 to 1 nM.

With `CN1CCN(c2ccn3ncc(-c4cn(-c5cn([C@H]6CC[C@H](CN(C)[C@H]7CC[C@H](Nc8cccc9c8n(C)c(=O)n9C8CCC(=O)NC8=O)CC7)CC6)nc5C(F)F)nn4)c3n2)CC1` (stereo partly drawn) [Compound 230], the Dmax fell in the range of 60 to 70%. Besides, the DC50 under setting [2] was 0.5 to 1 nM.

`Cn1c(=O)n(C2CCC(=O)NC2=O)c2cccc(C#CCOC3CCN(C[C@H]4CC[C@H](n5cc(-n6cc(-n7ccc8cc(C(N)=O)cnc87)nn6)c(C(F)F)n5)CC4)CC3)c21` (stereo partly drawn) [Example 106, 1-{1-[3-(difluoromethyl)-1-[(1r,4r)-4-{[4-({3-[1-(2,6-dioxohexahydropyridin-3-yl)-3-methyl-2-oxobenzo[d]imidazol-4-yl]prop-2-ynyl}oxy)hexahydropyridin-1-yl]methyl}cyclohexyl]pyrazol-4-yl]-1,2,3-triazol-4-yl}pyrrolo[2,3-b]pyridine-5-carboxamide] yielded a Dmax of 60 to 70%. In addition, the DC50 under setting [1] was less than 0.5 nM.

The compound `Cn1c(=O)n(C2CCC(=O)NC2=O)c2cccc(CN3CC4(CCN(C[C@H]5CC[C@H](n6cc(-n7cc(-c8cnn9ccc(N%10CCOCC%10)nc89)nn7)c(C(F)F)n6)CC5)CC4)C3)c21` (stereo partly drawn) [Example 13, 3-(4-((7-(((1r,4r)-4-(3-(difluoromethyl)-4-(4-(5-morpholinopyrazolo[1,5-a]pyrimidin-3-yl)-1H -1,2,3-triazol-1-yl)-1H-pyrazol-1-yl)cyclohexyl)methyl)-2,7-diazaspiro[3.5]nonan-2-yl)methyl)-3-methyl-2-oxo-2,3-dihydro-1H-benzo[d]imidazol-1-yl)piperidine-2,6-dione] returned a Dmax greater than 80%. Besides, the DC50 under setting [1] is less than 0.5 nM.

In turn, `Cn1c(=O)n(C2CCC(=O)NC2=O)c2cccc(N3CCC(N4CCN(C[C@H]5CC[C@H](n6cc(-n7cc(-c8cnn9ccc(N%10CCC[C@H](N)C%10)nc89)nn7)c(C(F)F)n6)CC5)CC4)CC3)c21` (stereo partly drawn) [Example 150, 3-(4-(4-(1R,4R)-4-(4-(4-(5-(S)-3-aminopiperidin-1-yl)pyrazolo[1,5-a]pyrimidin-3-yl)-1H-1,2,3-triazol-1-yl)-3-(difluoromethyl)-1H-pyrazol-1-yl)cyclohexyl)methyl)piperazin-1-yl)piperidin-1-yl)-3-methyl-2-oxo-2,3-dihydro-1H-benzoimidazol-1-yl)piperidine-2,6-dione hydrochloride] gave a Dmax greater than 80%. The DC50 under setting [1] is less than 0.5 nM.

In the case of `Cn1c(=O)n(C2CCC(=O)NC2=O)c2cccc(CN3CCC4(CC3)CCN(C[C@H]3CC[C@H](n5cc(-n6cc(-c7cnn8ccc(N9CCOCC9)nc78)nn6)c(C(F)F)n5)CC3)CC4)c21` (stereo partly drawn) [Example 6], the Dmax is less than 60%. This compound also returned a DC50 under setting [1] of less than 0.5 nM.

Compound `Cn1c(=O)n(C2CCC(=O)NC2=O)c2cccc(N3CCN(C4CN(C[C@H]5CC[C@H](n6cc(-n7cc(-c8ccc9cc(C(N)=O)cnn89)nn7)c(C(F)F)n6)CC5)C4)CC3)c21` (stereo partly drawn) [Example 67] showed a Dmax greater than 80%. Also, the DC50 under setting [1] was less than 0.5 nM.

`Cn1c(=O)n(C2CCC(=O)NC2=O)c2cccc(N3CCC4(CCN(C[C@H]5CC[C@H](n6cc(-n7cc(-c8cnn9ccc(N%10CCOCC%10)nc89)nn7)c(C(F)F)n6)CC5)C4)C3)c21` (stereo partly drawn) [Example 32, 3-(4-((1r,4r)-4-(3-(difluoromethyl)-4-(4-(5-morpholinopyrazolo[[1,5-a]pyrimidin-3-yl)-1H-1,2,3-triazol-1-yl)-1H-pyrazol-1-yl)cyclohexylmethyl)-2,7-diazaspiro[4.4]non-2-yl)-3-methyl-2-oxo-2,3-dihydro-1H-benzo[d]imidazol-1-yl)piperidine-2,6-dione] showed a Dmax of 70 to 80%. The compound further displayed a DC50 under setting [1] of less than 0.5 nM.

Regarding `C[C@H](C#Cc1cccc2c1n(C)c(=O)n2C1CCC(=O)NC1=O)OC1CCN(C[C@H]2CC[C@H](n3cc(-n4cc(-c5cnn6ccc(N7CCOCC7)nc56)nn4)c(C(F)F)n3)CC2)CC1` (stereo partly drawn) [Example 1, 3-(4-((R)-3-((1-(((1r,4R)-4-(3-(difluoromethyl)-4-(4-(5-morpholinopyrazolo[1,5-a]pyrimidin-3-yl)-1H-1,2,3-triazol-1-yl)-1H-pyrazol-1-yl)cyclohexyl)methyl)piperidin-4-yl)oxy)but-1-yn-1-yl)-3-methyl-2-oxo-2,3-dihydro-1H-benzo[d]imidazol-1-yl)piperidine-2,6-dione], the Dmax is less than 60%. Besides, the DC50 under setting [1] was less than 0.5 nM.

`CN1CCN(c2ccn3ncc(-c4cn(-c5cn([C@H]6CC[C@H](CN7CCC(N8CCN(c9cccc%10c9n(C)c(=O)n%10C9CCC(=O)NC9=O)CC8)CC7)CC6)nc5C(F)F)nn4)c3n2)CC1` (stereo partly drawn) [Compound 229] registered a Dmax of 60 to 70%. Further, the DC50 under setting [2] is less than 0.5 nM.

Take `NC(=O)c1cnn2c(-c3cn(-c4cn(C5CCN(CC6CCN(c7ccc(C(=O)NC8CCC(=O)NC8=O)c(F)c7)CC6)CC5)nc4C(F)F)nn3)ccc2c1` (stereo not drawn) [Example 95, 7-{1-[3-(difluoromethyl)-1-{1-[(1-{4-[(2,6-dioxopiperidin-3-yl)aminocarbonyl]-3-fluorophenyl}piperidin-4-yl)methyl]piperidin-4-yl}-1H-pyrazol-4-yl]-1H-1,2,3-triazol-4-yl}pyrrolo[1,2-b]pyridazine-3-carboxamide]: the Dmax (IRAK4-HiBiT, HEK293T cells, 24 h, read-out: Dmax) is less than 60%. Under setting [2], the DC50 is greater than 5 nM.

With `Cn1c(=O)n(C2CCC(=O)NC2=O)c2cccc(N3CCC4(CC3)CN(C[C@H]3CC[C@H](n5cc(-n6cc(-c7ccc8cc(C(N)=O)cnn78)nn6)c(C(F)F)n5)CC3)CCO4)c21` (stereo partly drawn) [Example 89, 7-(1-(3-(difluoromethyl)-1-((1r,4r)-4-((9-(1-(2,6-dioxopiperidin-3-yl)-3-methyl-2-oxo-2,3-dihydro-1H-benzo[d]imidazol-4-yl)-1-oxa-4,9-diazaspiro[5.5]undecan-4-yl)methyl)cyclohexyl)-1H-pyrazol-4-yl)-1H-1,2,3-triazol-4-yl)pyrrolo[1,2-b]pyridazine-3-carboxamide], the Dmax is greater than 80%. This compound returned a DC50 under setting [1] of 0.5 to 1 nM.

On to `Cn1c(=O)n(C2CCC(=O)NC2=O)c2cccc(N3CCC4(CCN(C[C@H]5CC[C@H](n6cc(-n7cc(-c8cnn9ccc(N%10CCNCC%10)nc89)nn7)c(C(F)F)n6)CC5)CC4)CC3)c21` (stereo partly drawn) [Example 129, 3-(4-(9-(((1r,4r)-4-(3-(difluoromethyl)-4-(4-(5-(piperazin-1-yl)pyrazolo[1,5-a]pyrimidin-3-yl)-1H-1,2,3-triazol-1-yl)-1H-pyrazol-1-yl)cyclohexyl)methyl)-3,9-diazaspiro[5.5]undecan-3-yl)-3-methyl-2-oxo-2,3-dihydro-1H-benzo[d]imidazol-1-yl)piperidine-2,6-dione dihydrochloride], for which the Dmax was greater than 80%. Besides, the DC50 under setting [1] is less than 0.5 nM.
